Measured values from patent US20170306322A1, “METHODS AND MATERIALS FOR IDENTIFYING COMPOUNDS PROMOTING TRA[…]-THROUGH OF NONSENSE MUTATIONS” (Evolva SA, priority 2013, published 2017).
“Also recorded” adds a separate entry of the source.

Tests used:
[1] = test system: APC premature stop codon luciferase reporter; assay: Dual Luciferase Assay, yeast APC premature stop codon Fluc reporter; type: cell-based; conditions: haploid and diploid strains (EFSC2740), compared to vehicle only (DMSO), triplicate
Procedure: To assess functionality of the Fluc reporter system, a luciferase activity protocol for the Dual Luciferase® Assay kit (Promega) was optimized to be able to test yeast strains in 96-well format. A representative experiment is outlined here. The yeast were incubated for 30° C. overnight. The luciferase assay was performed according to manufacturer's recommended protocol. Briefly, yeast cells were resuspended in SCgal culture media and measured at A600. A 10 uL sample was transferred to a white-opaque-bottom 96-well plate, mixed with 50 uL of passive lysis buffer and incubated at room-temperature for 20-30 minutes with gentle shaking. Next, 50 uL of luciferase assay reagent II and 50 uL of Stop & Glo® reagent were added. The plate was read in a plate reader using a dual luciferase program. The remaining yeast culture was maintained at 30° C. and the luciferase assays was performed daily.
The results of the above Dual Luciferase® Assay experiment are shown in FIG. 4 (samples were tested in triplicate and data was analyzed by GraphPad® with error bars showing mean with 95% confidence interval). Here, 3 different integration sites for the Fluc reporter were analyzed both in a haploid assay strain and in a diploid setting in the presence of aminoglycosides G418 and paromomycin. […]

[2] = test system: premature stop codon in APC; assay: Liquid suppression test, strain EFSC2686, APC premature stop codon URA3 reporter; type: cell-based, yeast
Procedure: Liquid suppression tests were also conducted with a different aminoglycoside, paromomycin. Read-through of the premature stop codon in APC was also observed after liquid cultivation of the strain in the presence of increasing concentrations of the aminoglycoside paromomycin. Here, strain EFSC2686 was grown in SCgal-ura media in the presence of increasing amounts of drug (0-500 uM) and growth rate was monitored on a daily basis. The presence of ≧250 uM paromomycin supports growth in SCgal media lacking uracil after 4 days incubation (see FIG. 3C).

[3] = test system: native stop codons in human genes (V-ATPase, Mdm2, ArhGAP1, DAT and PKCb, and striatin); assay: Yeast URA3 reporter spot test with native stop codons of human genes; type: cell-based
Text: In a similar set-up, read-through of 6 native stop codons in human genes (V-ATPase, Mdm2, ArhGAP1, DAT and PKCb, and striatin) was examined in front of the URA3 reporter system. […] A representative spot-test analysis is shown in FIG. 3B, where a strain containing the native stop codon of the human striatin gene was compared with the strain containing the APC premature stop codon mutant.

[4] = test system: P53 STOP (TAA198), P53 STOP (TAG221), P53 STOP (TGA196); assay: Yeast p53 stop codon URA3 reporter suppression on SCgal-ura plates; type: cell-based
Procedure: In addition to the APC stop-codon assay, other oncology targets including p53 were analyzed. Here, yeast strains were engineered with PGAL1-P53 STOP (TAA198)-URA3 (EFSC2231 and EFSC2233), PGAL1-P53 STOP (TAG221)-URA3 (EFSC2186 and EFSC2200) and PGAL1-P53 STOP (TGA196)-URA3 (EFSC2232 and EFSC2201) reporter integrated at the PRP5 locus. The strains were tested for suppression with G418 on SCgal-ura plates supplemented with increasing G418 concentrations.

[5] = test system: APC premature stop codon C1450X; assay: Yeast APC premature stop codon URA3/ADE2 reporter spot test on plates; type: cell-based; conditions: 20 ug/ml G418, spot test, 3-5 days at 30° C., Pgal1-APCmut-URA3/ADE2 strain
Text: A nucleic acid sequence containing a nonsense mutation was introduced into a yeast expression construct under the transcriptional control of a promoter e.g., an inducible promoter such as a galactose inducible promoter. The nucleic acid sequence containing the nonsense mutation was fused to a first marker gene such as URA3 and/or ADE2 (or other gene that results in an auxotroph if the gene is not transcribed and translated). The plasmid was integrated into an intergenic region in the genome of a modified yeast strain harboring deletion of ura3 and/or ade2 using conventional LiAc yeast transformation methods. Integrants were selected on media plates containing the antibiotic Hygromycin B or lacking histidine selecting for the marker present on the expression plasmid. Integrated strains were incubated with test compounds and plated on relevant growth media. Suitable test compounds include, for example, libraries of small molecules or expression libraries. […] Production of URA3 allowed the yeast cells to grow and form colonies on media lacking uracil after 2-4 days incubation at 30° C. Production of ADE2 conferred a white coloration of the yeast colonies and allowed the yeast cells to grow and form colonies on media plates lacking adenine after 2-4 days incubation at 30° C. […]
Next, the yeast strains were tested for read-through of the stop codon in the presence of the aminoglycoside G418. […]

| Structure (SMILES) | Firefly luciferase activity [1] | suppression of the APC stop codon, production of URA3 protein ([2]; liquid cultivation, FIG. 3C) | paromomycin concentration that supports growth in SCgal media lacking uracil ([2]; strain EFSC2686, 0-500 uM tested, after 4 days incubation) | selectivity of suppression, premature versus native stop codons ([3]; 20 ug/ml G418, APC mutant versus 6 native stop codons) | read-through of native stop codons (growth on SCgal-uracil) ([3]; SCgal-uracil + 20 ug/ml G418, 6 native stop codons) | order of suppression response by stop codon ([4]; G418, SCgal-ura plates) | expression of Ura3p, growth on SCgal-ura3 plates ([4]; increasing G418 concentrations, TAA198, TAG221 and TGA196 strains, all cases) | read-through of the APC premature stop codon (growth on SCgal-ura plates) [5] |
| --- | --- | --- | --- | --- | --- | --- | --- | --- |
| NC[C@@H]1O[C@H](O[C@H]2[C@@H](O)[C@H](O[C@@H]3[C@@H](O)[C@H](N)C[C@H](N)[C@H]3O[C@H]3O[C@H](CO)[C@@H](O)[C@H](O)[C@H]3N)O[C@@H]2CO)[C@H](N)[C@@H](O)[C@@H]1O [paromomycin] | able to induce luciferase activity | leads to suppression of the APC stop codon and production of URA3 protein | ≥ 250 µM |  |  |  |  |  |
| CN[C@@H]1[C@@H](O)[C@@H](O[C@@H]2[C@@H](O)[C@H](O[C@H]3O[C@H]([C@@H](C)O)[C@@H](O)[C@H](O)[C@H]3N)[C@@H](N)C[C@H]2N)OC[C@]1(C)O [G418] | able to induce luciferase activity; also recorded: robust and significant Firefly luciferase activity |  |  | selective for premature stop codons | no detectable read-through of stop codon was observed | TGA>TAG>TAA | able to trigger expression of Ura3p | allows translation read-through of the APC gene; also recorded: triggered read-through of the stop codon |
